The values below are quoted from earlier work in patent EP1566168A1, “Dermo-cosmetic compositions for depigmenting and use of it” (priority 2004, dated 2005).

SMILES strings stand for the structures.

One data set relates to peau. Conditions: applied to the skin.
For data set [1] the following is noted: oil.

Take `CCCCCCCCCCCCCCCC(=O)OCc1cc(=O)c(OC(=O)CCCCCCCCCCCCCCC)co1` [acide dipalmitoylkojique, 2-palmitoyloxy 5-palmitoyloxy γ-pyrone]: in the data set on peau, the propriétés irritantes result was “dépourvu de propriétés irritantes”. In addition, the solubilité entry in data set [1] is reported as “soluble dans l'huile”.
